Data on 23 compounds can be found in ChEMBL document CHEMBL3797130, “Development of novel proteasome inhibitors based on phthalazinone scaffold” (Bioorg Med Chem Lett, 2016).

The source made the active and inactive calls. The calls are words filed in the database; no cut-off is given here.

Assay [1] concerns the target T1, Proteasome Macropain subunit MB1 (Homo sapiens) (UniProt P28074).
T1 sequence (whole entry): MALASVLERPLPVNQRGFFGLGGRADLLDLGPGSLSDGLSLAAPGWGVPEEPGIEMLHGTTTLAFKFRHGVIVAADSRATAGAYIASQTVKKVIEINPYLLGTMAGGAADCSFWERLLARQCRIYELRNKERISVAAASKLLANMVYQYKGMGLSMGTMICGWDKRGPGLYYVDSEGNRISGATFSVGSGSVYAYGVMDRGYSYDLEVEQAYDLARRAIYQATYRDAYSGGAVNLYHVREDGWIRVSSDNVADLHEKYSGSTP
The experiment in a line: Inhibition of chymotrypsin-like activity of 20S human proteasome assessed as […] at 25 ug/ml using Promega proteasome-Glo-3 substrate incubated for 15 mins by luminescence assay.

Assay [2] has as its target T2, Proteasome Macropain subunit MB1 (Homo sapiens, UniProt P28074).
T2 sequence (P28074 whole entry): T1 sequence (whole entry)
The experiment in a line: Inhibition of chymotrypsin-like activity of 20S human proteasome assessed as […] at using Promega proteasome-Glo-3 substrate incubated for 15 mins by luminescence assay.

On to `CCN(CC)c1ccc(-n2nc(-c3ccc(OCCCCN4CCCC4)cc3)c3ccccc3c2=O)cc1`, for which the inhibition in assay [1] amounted to 13.2%.
Consider `O=c1c2ccccc2c(-c2ccc(OCCCC[P+](c3ccccc3)(c3ccccc3)c3ccccc3)cc2)nn1CC1CC1`, for which the half-inhibitory concentration (IC50) in assay [2] was 23 µM. The inhibition in assay [1] was found to be 48.2%.
As to `CCN(CC)c1ccc(-n2nc(-c3ccc(OCCCC[P+](C4CCCCC4)(C4CCCCC4)C4CCCCC4)cc3)c3ccccc3c2=O)cc1`, the IC50 in assay [2] came to 13.3 µM. The inhibition in assay [1] worked out at 98.5%.
With `CCN(CC)c1ccc(-n2nc(-c3ccc(OCCCCN4CCOCC4)cc3)c3ccccc3c2=O)cc1`, the inhibition in assay [1] is 5.1%.
Same read-out and setting: the value for `CCN(CC)c1ccc(-n2nc(-c3ccc(OCCCC[n+]4ccccc4)cc3)c3ccccc3c2=O)cc1` was 8.6%.
In the case of `CCN(CC)c1ccc(-n2nc(-c3ccc(OCCCC[P+](c4ccccc4)(c4ccccc4)c4ccccc4)cc3)c3ccccc3c2=O)cc1`, the IC50 in assay [2] was determined as 10.2 µM. Further, the inhibition in assay [1] is 99.1%.
As for `CCn1nc(-c2ccc(OCCCC[P+](c3ccccc3)(c3ccccc3)c3ccccc3)cc2)c2ccccc2c1=O`, the inhibition result in assay [1] was “inactive”.
For the compound `CC(C)Cn1nc(-c2ccc(OCCCC[P+](c3ccccc3)(c3ccccc3)c3ccccc3)cc2)c2ccccc2c1=O`, the IC50 in assay [2] was 26 µM. In addition, the inhibition in assay [1] is 52.4%.
The matching figures for `O=c1c2ccccc2c(-c2ccc(OCCCC[P+](c3ccccc3)(c3ccccc3)c3ccccc3)cc2)nn1-c1cccs1`: 17.6 µM and 93.2%.
In the case of `CCN(CC)c1ccc(-n2nc(-c3ccc(OCCCCN4CCCCC4)cc3)c3ccccc3c2=O)cc1`, the inhibition in assay [1] was determined as 8%.
`CCN(CC)c1ccc(-n2nc(-c3ccc(OCCCC[N+](CC)(CC)CC)cc3)c3ccccc3c2=O)cc1`: the inhibition in assay [1] worked out at 10.3%.
With `O=c1c2ccccc2c(-c2ccc(OCCCC[P+](c3ccccc3)(c3ccccc3)c3ccccc3)cc2)nn1CC1CCCCC1`, in assay [2], the half-inhibitory concentration (IC50) is 16.1 µM. Further, the inhibition in assay [1] is 84.9%.
The matching figures for `O=c1c2ccccc2c(-c2ccc(OCCCC[P+](c3ccccc3)(c3ccccc3)c3ccccc3)cc2)nn1Cc1ccccc1`: 11.9 µM and 80.9%.
The matching figures for `O=c1c2ccccc2c(-c2ccc(OCCCC[P+](c3ccccc3)(c3ccccc3)c3ccccc3)cc2)nn1-c1ccc2ccccc2c1`: 13.8 µM and 98.7%.
As for `O=c1c2ccccc2c(-c2ccc(OCCCC[P+](c3ccccc3)(c3ccccc3)c3ccccc3)cc2)nn1CC1CCC1`, the IC50 in assay [2] came out at 21.5 µM. Moreover, in assay [1], the inhibition was 70.5%.
In the case of `CCN(CC)c1ccc(-n2nc(-c3ccc(OCCCCBr)cc3)c3ccccc3c2=O)cc1`, the inhibition entry in assay [1] was “inactive”.
Take `CCCCn1nc(-c2ccc(OCCCC[P+](c3ccccc3)(c3ccccc3)c3ccccc3)cc2)c2ccccc2c1=O`: in assay [1], the inhibition was found to be 35.8%.
Consider `CCN(CC)c1ccc(-n2nc(-c3ccc(OCCCC[n+]4ccn(C)c4)cc3)c3ccccc3c2=O)cc1`, for which, in assay [1], the inhibition came out at 5.8%.
With `O=c1c2ccccc2c(-c2ccc(OCCCC[P+](c3ccccc3)(c3ccccc3)c3ccccc3)cc2)nn1-c1ccccc1`, the IC50 in assay [2] came to 9.88 µM. Also, the inhibition in assay [1] turned out to be 99.5%.
With `Cn1nc(-c2ccc(OCCCC[P+](c3ccccc3)(c3ccccc3)c3ccccc3)cc2)c2ccccc2c1=O`, in assay [1], the inhibition entry is “inactive”.
On the same count and under the same terms, the value for `CCCn1nc(-c2ccc(OCCCC[P+](c3ccccc3)(c3ccccc3)c3ccccc3)cc2)c2ccccc2c1=O` was 12.1%; that for `CCN(CC)c1ccc(-n2nc(-c3ccc(OCCCCP(c4ccccc4)c4ccccc4)cc3)c3ccccc3c2=O)cc1` was 19.6%.
Consider `CNc1ccc(-n2nc(-c3ccc(OCCCC[P+](c4ccccc4)(c4ccccc4)c4ccccc4)cc3)c3ccccc3c2=O)cc1`, for which, in assay [2], the half-inhibitory concentration (IC50) came out at 14.2 µM. In addition, in assay [1], the inhibition was 94.3%.

In general, inhibition refers to how much of the control response was suppressed. The IC50 is the concentration needed to halve the response being measured.
